Key:
Arabidopsis HST = target: T1, Arabidopsis HST (Arabidopsis thaliana, UniProt Q1ACB3); test: HST total extraction (non TLC) assay, recombinant Arabidopsis HST from insect cells; format: biochemical
T1 construct: GST (factor Xa cleavage site) (N); made in house; host or cells: Sf9 insect cells (baculovirus, pAcG3X), membrane fraction
T1 sequence (Q1ACB3 70-386): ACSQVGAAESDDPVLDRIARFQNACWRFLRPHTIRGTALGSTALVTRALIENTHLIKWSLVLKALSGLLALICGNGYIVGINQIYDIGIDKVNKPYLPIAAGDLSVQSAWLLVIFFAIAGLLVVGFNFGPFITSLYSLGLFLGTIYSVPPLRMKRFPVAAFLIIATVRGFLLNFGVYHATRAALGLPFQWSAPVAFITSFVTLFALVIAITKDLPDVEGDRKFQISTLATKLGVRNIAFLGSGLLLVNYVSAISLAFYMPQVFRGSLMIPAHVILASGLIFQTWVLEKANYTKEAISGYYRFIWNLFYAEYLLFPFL

weeds [1] = test: Glasshouse weed control, HST inhibitors alone and with A22, post-emergence; format: in vivo; conditions: 336 h, 14 DAT, single replicate, read-out: % control score, Obs; for pest or weed control at 15.625 g/ha: 15.625 g/ha alone; for pest or weed control at 62.5 g/ha: 62.5 g/ha alone; for pest or weed control at 250 g/ha: 250 g/ha alone
Method: (§1) In a further test, the results of which are depicted in tables 18 and 19, weed seeds are planted out in trays containing 50% peat/50% John Innes no. 3 soil and grown in the glass house at 24-27 C day; 18-21 C night and approximately a 15 h photoperiod. Humidity is ˜65% and light levels at bench level are up to 2 mmol/m^2. Again all spray chemicals are dissolved in 0.2% X77 surfactant and sprayed from a boom on a track sprayer moving at 2 mph with the nozzle set about 2 inches above the plant tops. The spray volume is […]. Sprays are carried out both pre-emergence and post-emergence over small plants at about 7-12 d post-emergence. Plants are assessed at 14 DAT with herbicidal damage scored on a scale from 0 to 100%. The HPPD inhibiting herbicide is compound A22 (4-hydroxy-3-[[2-(2-methoxyethoxy)methyl]-6-(trifluoromethyl)-3-pyridinylicarbonyl]-bicyclo[3.2.1]oct-3-en-2-one) which is sprayed at 2 g/ha both alone and in mixture with various HST herbicides. Results and spray rates are depicted in Tables 18 and 19. Again the Colby formula has been used to calculate synergy scores observed following treatment with the mixture based on the results obtained with the single components alone. Positive synergy is observed between the HPPD herbicide and a wide variety of HST inhibitor herbicides applied both pre and postemergence across a variety of weeds.

weeds [2] = test: Glasshouse weed control, HST inhibitors alone and with A22, pre-emergence; format: in vivo; conditions: 336 h, 14 DAT; for pest or weed control at 15.625 g/ha: HST inhibitor rate 15.625 g/ha; for pest or weed control at 62.5 g/ha: HST inhibitor rate 62.5 g/ha; for pest or weed control at 250 g/ha: HST inhibitor rate 250 g/ha
Method: as §1

[3] = BRAPL, read-out: BRAPL Obs, % control score
[4] = PANMI, read-out: PANMI Obs, % control score
[5] = SIDSP, read-out: SIDSP Obs, % control score
[6] = Digitaria sanguinalis, DIGSA, read-out: DIGSA Obs, % control score
[7] = Echinochloa crus-galli, ECHCG, read-out: ECHCG Obs, % control score
[8] = Setaria faberi, SETFA, read-out: SETFA Obs, % control score

| Compound | Estimated IC50 (ppm) (Arabidopsis HST) | pest or weed control at 15.625 g/ha (weeds [1]; BRAPL) [%] | pest or weed control at 62.5 g/ha (weeds [1]; BRAPL) [%] | pest or weed control at 250 g/ha (weeds [1]; BRAPL) [%] | pest or weed control at 15.625 g/ha (weeds [1]; PANMI) [%] | pest or weed control at 62.5 g/ha (weeds [1]; PANMI) [%] | pest or weed control at 250 g/ha (weeds [1]; PANMI) [%] | pest or weed control at 15.625 g/ha (weeds [1]; SIDSP) [%] | pest or weed control at 62.5 g/ha (weeds [1]; SIDSP) [%] | pest or weed control at 250 g/ha (weeds [1]; SIDSP) [%] | pest or weed control at 15.625 g/ha (weeds [1]; Digitaria sanguinalis, DIGSA) [%] | pest or weed control at 62.5 g/ha (weeds [1]; Digitaria sanguinalis, DIGSA) [%] | pest or weed control at 250 g/ha (weeds [1]; Digitaria sanguinalis, DIGSA) [%] | pest or weed control at 15.625 g/ha (weeds [1]; Echinochloa crus-galli, ECHCG) [%] | pest or weed control at 62.5 g/ha (weeds [1]; Echinochloa crus-galli, ECHCG) [%] | pest or weed control at 250 g/ha (weeds [1]; Echinochloa crus-galli, ECHCG) [%] | pest or weed control at 15.625 g/ha (weeds [1]; Setaria faberi, SETFA) [%] | pest or weed control at 62.5 g/ha (weeds [1]; Setaria faberi, SETFA) [%] | pest or weed control at 250 g/ha (weeds [1]; Setaria faberi, SETFA) [%] | pest or weed control at 15.625 g/ha (weeds [2]; [3]) [%] | further results |
| --- | --- | --- | --- | --- | --- | --- | --- | --- | --- | --- | --- | --- | --- | --- | --- | --- | --- | --- | --- | --- | --- |
| O=c1c(-c2c(F)ccc(F)c2Cl)c(O)c2nccnc2n1CC(F)(F)F [Compound 2.17] | 38 | 1 | 15 | 50 | 0 | 10 | 55 | 5 | 15 | 50 | 0 | 5 | 50 | 0 | 5 | 40 | 0 | 10 | 40 | 0 | pest or weed control at 62.5 g/ha (weeds [2]; [3]): 0%; pest or weed control at 250 g/ha (weeds [2]; [3]): 2%; pest or weed control at 15.625 g/ha (weeds [2]; [4]): 0%; pest or weed control at 62.5 g/ha (weeds [2]; [4]): 0%; pest or weed control at 250 g/ha (weeds [2]; [4]): 0%; pest or weed control at 15.625 g/ha (weeds [2]; [5]): 0%; pest or weed control at 62.5 g/ha (weeds [2]; [5]): 0%; pest or weed control at 250 g/ha (weeds [2]; [5]): 0%; pest or weed control at 15.625 g/ha (weeds [2]; [6]): 0%; pest or weed control at 62.5 g/ha (weeds [2]; [6]): 0%; pest or weed control at 250 g/ha (weeds [2]; [6]): 0%; pest or weed control at 15.625 g/ha (weeds [2]; [7]): 0%; pest or weed control at 62.5 g/ha (weeds [2]; [7]): 0%; pest or weed control at 250 g/ha (weeds [2]; [7]): 10%; pest or weed control at 15.625 g/ha (weeds [2]; [8]): 0%; pest or weed control at 62.5 g/ha (weeds [2]; [8]): 0%; pest or weed control at 250 g/ha (weeds [2]; [8]): 10% |
| O=c1c(-c2c(F)ccc(Cl)c2Cl)c(O)c2nccnc2n1CC(F)F [Compound 2.21] | 64 | 5 | 30 | 80 | 10 | 30 | 70 | 5 | 20 | 40 | 0 | 10 | 20 | 0 | 10 | 40 | 2 | 20 | 60 | 0 | pest or weed control at 62.5 g/ha (weeds [2]; [3]): 2%; pest or weed control at 250 g/ha (weeds [2]; [3]): 5%; pest or weed control at 15.625 g/ha (weeds [2]; [4]): 0%; pest or weed control at 62.5 g/ha (weeds [2]; [4]): 0%; pest or weed control at 250 g/ha (weeds [2]; [4]): 0%; pest or weed control at 15.625 g/ha (weeds [2]; [5]): 0%; pest or weed control at 62.5 g/ha (weeds [2]; [5]): 0%; pest or weed control at 250 g/ha (weeds [2]; [5]): 1%; pest or weed control at 15.625 g/ha (weeds [2]; [6]): 0%; pest or weed control at 62.5 g/ha (weeds [2]; [6]): 0%; pest or weed control at 250 g/ha (weeds [2]; [6]): 0%; pest or weed control at 15.625 g/ha (weeds [2]; [7]): 0%; pest or weed control at 62.5 g/ha (weeds [2]; [7]): 0%; pest or weed control at 250 g/ha (weeds [2]; [7]): 5%; pest or weed control at 15.625 g/ha (weeds [2]; [8]): 0%; pest or weed control at 62.5 g/ha (weeds [2]; [8]): 0%; pest or weed control at 250 g/ha (weeds [2]; [8]): 2% |
| CC1=NN(C)C(=O)C(c2c(C)cc(C)cc2C)C1=O (stereo not drawn) [Compound 6.1] | 63 | 10 | 40 | 75 | 2 | 50 | 80 | 5 | 15 | 20 | 0 | 10 | 30 | 0 | 5 | 50 | 0 | 20 | 70 | 0 | pest or weed control at 62.5 g/ha (weeds [2]; [3]): 0%; pest or weed control at 250 g/ha (weeds [2]; [3]): 10%; pest or weed control at 15.625 g/ha (weeds [2]; [4]): 0%; pest or weed control at 62.5 g/ha (weeds [2]; [4]): 0%; pest or weed control at 250 g/ha (weeds [2]; [4]): 40%; pest or weed control at 15.625 g/ha (weeds [2]; [5]): 0%; pest or weed control at 62.5 g/ha (weeds [2]; [5]): 0%; pest or weed control at 250 g/ha (weeds [2]; [5]): 0%; pest or weed control at 15.625 g/ha (weeds [2]; [6]): 0%; pest or weed control at 62.5 g/ha (weeds [2]; [6]): 0%; pest or weed control at 250 g/ha (weeds [2]; [6]): 2%; pest or weed control at 15.625 g/ha (weeds [2]; [7]): 0%; pest or weed control at 62.5 g/ha (weeds [2]; [7]): 1%; pest or weed control at 250 g/ha (weeds [2]; [7]): 60%; pest or weed control at 15.625 g/ha (weeds [2]; [8]): 0%; pest or weed control at 62.5 g/ha (weeds [2]; [8]): 2%; pest or weed control at 250 g/ha (weeds [2]; [8]): 20% |

From patent US20110173718A1, “HERBICIDE TOLERANT PLANTS” (SYNGENTA CROP PROTECTION, INC., priority 2008, published 2011)
